Source: patent US20240067613A1, “NOVEL QUINAZOLINE DERIVATIVES AS SOS1 INHIBITORS AND USE THEREOF” (HANMI PHARMACEUTICAL CO., LTD., priority 2020, published 2024)

target: T1, SOS1 binding to KRAS G12C (Homo sapiens, UniProt Q07889); assay: SOS1 GTP substitution inhibition test (HTRF/TR-FRET, KRAS G12C-SOS1 binding inhibitory ability); assay type: biochemical; settings: HTRF, GST-KRAS G12C (2-169), SOS1-Strep (564-1049), 1.6, 8, 40, 200, 1,000 nM
T1 construct: consisting of amino acid residues 564 to 1049 which are the catalytic domain; purchased Reaction Biology Corporation MSC-11-502 (SOS1-Strep); MSC-11-538 (KRAS G12C)
T1 sequence (Q07889 564-1049): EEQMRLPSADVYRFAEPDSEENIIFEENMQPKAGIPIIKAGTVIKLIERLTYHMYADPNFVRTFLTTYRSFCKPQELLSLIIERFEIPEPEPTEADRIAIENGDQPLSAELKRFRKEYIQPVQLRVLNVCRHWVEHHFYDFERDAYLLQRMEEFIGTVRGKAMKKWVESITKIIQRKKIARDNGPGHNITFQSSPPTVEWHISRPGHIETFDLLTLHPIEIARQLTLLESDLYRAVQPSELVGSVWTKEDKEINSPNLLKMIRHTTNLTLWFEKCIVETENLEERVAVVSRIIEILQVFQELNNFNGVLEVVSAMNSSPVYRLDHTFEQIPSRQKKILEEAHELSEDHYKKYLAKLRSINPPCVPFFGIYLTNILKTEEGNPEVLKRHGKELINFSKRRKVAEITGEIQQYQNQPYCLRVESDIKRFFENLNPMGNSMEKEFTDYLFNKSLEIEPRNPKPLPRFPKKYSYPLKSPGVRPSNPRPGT
Procedure: In order to determine whether the substitution function of SOS1 binding to KRAS G12C is inhibited by the above-described example compounds, a homogeneous time-resolved fluorescence (HTRF) test was performed using G12C(#MSC-11-538) and SOS1-Strep(#MSC-11-502) purchased from Reaction Biology Corporation (MA, USA). The activity of SOS1 enzyme was determined by measuring the amount of GTP bound to KRAS G12C proteins, using the principle of time-resolved fluorescence energy transfer (TR-FRET). Based on the principle that terbium bound to the GST-binding antibody of the GST-KRAS G12C protein acts as a donor of fluorescence resonance energy transfer (FRET), and the GTP bound to the KRAS G12C protein is labeled with the fluorescent agent DY-647P1 and acts as a receiver, when the more GTP is bound to the KRAS G12C protein by the substitution reaction of SOS1 according to this test, the higher HTRF or FRET signal is measured. To summarize, glutathione S-transferase (GST)-tagged KRAS G12C proteins (consisting of amino acid residues 2 to 169) required for the reaction, streptavidin-tagged SOS1 proteins (consisting of amino acid residues 564 to 1049 which are the catalytic domain), anti-GST antibody (#61[…]) purchased from CISBIO corporation, nucleic acid (#NU-820-647P1) purchased from Jena Bioscience GmbH were mixed in a buffer solution formed from 10 mM HEPES pH7.4, 150 mM NaCl, 5 mM MgCl2, and 1 mM dithiothreitol (DTT), and the mixture was added to a 384-well plate and reacted at room temperature. Next, FRET signals were measured with a Perkin Elmer Envision microplate reader. In this case, an excitation signal (excitation) was measured at 320 nm, and an emission signal (emission) was measured at 615/665 nm. The fluorescence measurement value when the SOS1 protein was not included was calculated as a background signal value, and the background signal value was subtracted from all of the measured HTRF values. The fluorescence measurement value when the synthesized compound was not included was measured as a control value, and this value was selected as a reference point of 100%. For each of the example compounds, fluorescence was measured at concentrations of 1.6, 8, 40, 200, and 1,000 nM (5 points, 5-fold), and the 50% activity inhibition value (IC50) of each of the compounds was calculated using GraphPad Prism. When the IC50 value was 50 nM or less, the inhibitory ability was denoted as +++. When the IC50 value was more than 50 nM and 100 nM or less, the inhibitory ability was denoted as ++. When the IC50 value was more than 100 nM, the inhibitory ability was denoted as +.

Structure (SMILES)	IC50
Cc1nc(N[C@H](C)c2cc(N)cc(C(F)(F)F)c2)c2cc(O[C@H]3CCOC3)c(C(=O)N3CCOCC3)cc2n1 [Example 27, (4-(((R)-1-(3-amino-5-(trifluoromethyl)phenyl)ethyl)amino)-2-methyl-6-(((S)-tetrahydrofuran-3-yl)oxy)quinazolin-7-yl)(morpholino)methanone]	0.05 to 0.1 µM
COc1cc2c(N[C@H](C)c3cc(N)cc(-c4ccoc4)c3)nc(C)nc2cc1C(=O)N1CCOCC1 [Example 28, (R)-(4-((1-(3-amino-5-(furan-3-yl)phenyl)ethyl)amino)-6-methoxy-2-methylquinazolin-7-yl)(morpholino)methanone]	≤ 0.05 µM
COc1cc2c(N[C@H](C)c3cc(N)cc(C(F)F)c3)nc(C)nc2cc1C(=O)N1CCOCC1 [Example 29, (R)-(4-((1-(3-amino-5-(difluoromethyl)phenyl)ethyl)amino)-6-methoxy-2-methylquinazolin-7-yl)(morpholino)methanone]	≤ 0.05 µM
COc1cc2c(N[C@H](C)c3cc(N)cc(-c4cncs4)c3)nc(C)nc2cc1C(=O)N1CCOCC1 [Example 30, (R)-(4-((1-(3-amino-5-(thiazole-5-yl)phenyl)ethyl)amino)-6-methoxy-2-methylquinazolin-7-yl)(morpholino)methanone]	0.05 to 0.1 µM
CCNc1cc([C@@H](C)Nc2nc(C)nc3cc(C(=O)N4CCOCC4)c(OC)cc23)cc(C(F)(F)F)c1 [Example 31, (R)-(4-((1-(3-(ethylamino)-5-(trifluoromethyl)phenyl)ethyl)amino)-6-methoxy-2-methylquinazolin-7-yl)(morpholino)methanone]	0.05 to 0.1 µM
COCCOc1cc2c(N[C@H](C)c3cc(N)cc(C(F)(F)F)c3)nc(C)nc2cc1C(=O)N1CCOCC1 [Example 32, methyl (R)-(4-((1-(3-amino-5-(trifluoromethyl)phenyl)ethyl)amino)-6-(2-methoxyethoxy)-2-methylquinazolin-7-yl)(morpholino)methanone]	> 0.1 µM
COc1cc2c(N[C@H](C)c3cc(N)cc(C(F)(F)F)c3)nc(CF)nc2cc1C(=O)N1CCOCC1 [Example 33, (R)-(4-((1-(3-amino-5-(trifluoromethyl)phenyl)ethyl)amino)-2-(fluoromethyl)-6-methoxyquinazolin-7-yl)(morpholino)methanone]	> 0.1 µM
COc1cc2c(N[C@H](C)c3cc(N)cc(C(F)(F)F)c3)nc(C)nc2cc1CN1CCOCC1 [Example 34, (R)-N-(1-(3-amino-5-(trifluoromethyl)phenyl)ethyl)-6-methoxy-2-methyl-7-(morpholinomethyl)quinazoline-4-amine]	> 0.1 µM
COc1cc2c(N[C@H](C)c3cc(N)cc(C(F)F)c3F)nc(C)nc2cc1CN1CCOCC1 [Example 35, (R)-N-(1-(5-amino-3-(difluoromethyl)-2-fluorophenyl)ethyl)-6-methoxy-2-methyl-7-(morpholinomethyl)quinazoline-4-amine]	≤ 0.05 µM
COc1cc2c(N[C@H](C)c3cc(N)cc(C(F)(F)F)c3)nc(C)nc2cc1OC1CCOCC1 [Example 36]	0.05 to 0.1 µM
COc1cc2c(N[C@H](C)c3cc(N)cc(C(F)F)c3F)nc(C)nc2cc1OC1CCOCC1 [Example 37, (R)-N-(1-(5-amino-3-(difluoromethyl)-2-fluorophenyl)ethyl)-6-methoxy-2-methyl-7-((tetrahydro-2H-pyran-4-yl)oxy)quinazoline-4-amine]	> 0.1 µM
COc1cc2c(N[C@H](C)c3cc(N)cc(C(F)(F)F)c3)nc(C)nc2cc1OCC1CCOCC1 [Example 38, (R)-N-(1-(3-amino-5-(trifluoromethyl)phenyl)ethyl)-6-methoxy-2-methyl-7-((tetrahydro-2H-pyran-4-yl)methoxy)quinazoline-4-amine]	> 0.1 µM
COc1cc2c(N[C@H](C)c3cc(N)cc(C(F)(F)F)c3)nc(C)nc2cc1OCC1COC1 [Example 39, (R)-N-(1-(3-amino-5-(trifluoromethyl)phenyl)ethyl)-6-methoxy-2-methyl-7-(oxetane-3-ylmethoxy)quinazoline-4-amine]	> 0.1 µM
CNc1cc2c(N[C@H](C)c3cc(N)cc(C(F)(F)F)c3)nc(C)nc2cc1C(=O)N1CCOCC1 [Example 40, (R)-(4-((1-(3-amino-5-(trifluoromethyl)phenyl)ethyl)amino)-2-methyl-6-(methylamino)quinazoline-7-yl)(morpholino)methanone]	≤ 0.05 µM
Cc1nc(N[C@H](C)c2cc(N)cc(C(F)(F)F)c2)c2cc(N(C)C)c(C(=O)N3CCOCC3)cc2n1 [Example 41, (R)-(4-((1-(3-amino-5-(trifluoromethyl)phenyl)ethyl)amino)-6-(dimethylamino)-2-methylquinazoline-7-yl)(morpholino)methanone]	0.05 to 0.1 µM
Cc1nc(N[C@H](C)c2cc(N)cc(C(F)(F)F)c2)c2cc(N3CCCC3)c(C(=O)N3CCOCC3)cc2n1 [Example 42, (R)-(4-((1-(3-amino-5-(trifluoromethyl)phenyl)ethyl)amino)-2-methyl-6-(pyrrolidin-1-yl)quinazoline-7-yl)(morpholino)methanone]	> 0.1 µM

Other lines, results leading:

IC50	Structure (SMILES)
≤ 0.05 µM	CNc1cc2c(N[C@H](C)c3cc(N)cc(C(F)F)c3F)nc(C)nc2cc1C(=O)N1CCOCC1 [Example 43, (R)-(4-((1-(5-amino-3-(difluoromethyl)-2-fluorophenyl)ethyl)amino)-2-methyl-6-(methylamino)quinazoline-7-yl)(morpholino)methanone]
0.05 to 0.1 µM	COCCNc1cc2c(N[C@H](C)c3cc(N)cc(C(F)(F)F)c3)nc(C)nc2cc1C(=O)N1CCOCC1 [Example 44, (R)-(4-((1-(3-amino-5-(trifluoromethyl)phenyl)ethyl)amino)-6-((2-methoxyethyl)amino)-2-methylquinazoline-7-yl)(morpholino)methanone]
0.05 to 0.1 µM	Cc1nc(N[C@H](C)c2cc(N)cc(C(F)(F)F)c2)c2cc(NC3CCCC3)c(C(=O)N3CCOCC3)cc2n1 [Example 45, (R)-(4-((1-(3-amino-5-(trifluoromethyl)phenyl)ethyl)amino)-6-(cyclopentylamino)-2-methylquinazoline-7-yl)(morpholino)methanone]
0.05 to 0.1 µM	CCNc1cc2c(N[C@H](C)c3cc(N)cc(C(F)(F)F)c3)nc(C)nc2cc1C(=O)N1CCOCC1 [Example 46, (R)-(4-((1-(3-amino-5-(trifluoromethyl)phenyl)ethyl)amino)-6-(ethylamino)-2-methylquinazoline-7-yl)(morpholino)methanone]
0.05 to 0.1 µM	Cc1nc(N[C@H](C)c2cc(N)cc(C(F)(F)F)c2)c2cc(NC(C)C)c(C(=O)N3CCOCC3)cc2n1 [Example 47, (R)-(4-((1-(3-amino-5-(trifluoromethyl)phenyl)ethyl)amino)-6-(isopropylamino)-2-methylquinazoline-7-yl)(morpholino)methanone]
> 0.1 µM	Cc1nc(N[C@H](C)c2cc(N)cc(C(F)(F)F)c2)c2cc(NC3CCOCC3)c(C(=O)N3CCOCC3)cc2n1 [Example 48, (R)-(4-((1-(3-amino-5-(trifluoromethyl)phenyl)ethyl)amino)-2-methyl-6-((tetrahydro-2H-pyran-4-yl)amino)quinazoline-7-yl)(morpholino)methanone]
0.05 to 0.1 µM	CNc1cc2c(N[C@H](C)c3cc(N)cc(C(F)(F)F)c3)nc(C)nc2cc1CN1CCOCC1 [Example 49, (R)-N^4-(1-(3-amino-5-(trifluoromethyl)phenyl)ethyl)-N^6,2-dimethyl-7-(morpholinomethyl)quinazoline-4,6-diamine]
